Source: patent US9765067B2, “Thiophen-2-yl-pyridin-2-yl-1H-pyrazole-4-carboxylic acid derivatives and the use thereof as soluble guanylate cyclase activators” (Novartis AG, priority 2014, dated 2017)

Target: T1, soluble guanylate cyclase (human GUCYA3/GUCYB3) overexpressed in CHO cells (Homo sapiens, UniProt Q02108+Q02153)
T1 construct: expressed in transfected cells
T1 sequence (Q02108 1-690 partner): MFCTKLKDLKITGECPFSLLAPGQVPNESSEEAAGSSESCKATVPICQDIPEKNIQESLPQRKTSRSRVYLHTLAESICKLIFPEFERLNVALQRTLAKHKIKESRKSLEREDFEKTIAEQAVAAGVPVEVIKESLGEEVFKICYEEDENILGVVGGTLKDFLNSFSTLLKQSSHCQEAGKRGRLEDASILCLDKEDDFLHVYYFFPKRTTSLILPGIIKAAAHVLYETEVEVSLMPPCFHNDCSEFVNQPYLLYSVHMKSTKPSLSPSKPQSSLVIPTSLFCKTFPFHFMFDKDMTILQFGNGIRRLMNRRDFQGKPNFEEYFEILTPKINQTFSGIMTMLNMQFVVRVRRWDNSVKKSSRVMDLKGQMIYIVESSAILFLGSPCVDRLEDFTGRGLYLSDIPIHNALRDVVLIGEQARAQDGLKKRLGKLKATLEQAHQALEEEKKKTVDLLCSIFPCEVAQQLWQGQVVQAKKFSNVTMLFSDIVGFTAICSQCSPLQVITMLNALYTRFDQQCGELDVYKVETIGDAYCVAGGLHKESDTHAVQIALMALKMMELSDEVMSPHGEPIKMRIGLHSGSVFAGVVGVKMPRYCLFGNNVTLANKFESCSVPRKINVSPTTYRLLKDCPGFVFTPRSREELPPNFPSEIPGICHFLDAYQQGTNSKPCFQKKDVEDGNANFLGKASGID
T1 sequence (Q02153 1-619): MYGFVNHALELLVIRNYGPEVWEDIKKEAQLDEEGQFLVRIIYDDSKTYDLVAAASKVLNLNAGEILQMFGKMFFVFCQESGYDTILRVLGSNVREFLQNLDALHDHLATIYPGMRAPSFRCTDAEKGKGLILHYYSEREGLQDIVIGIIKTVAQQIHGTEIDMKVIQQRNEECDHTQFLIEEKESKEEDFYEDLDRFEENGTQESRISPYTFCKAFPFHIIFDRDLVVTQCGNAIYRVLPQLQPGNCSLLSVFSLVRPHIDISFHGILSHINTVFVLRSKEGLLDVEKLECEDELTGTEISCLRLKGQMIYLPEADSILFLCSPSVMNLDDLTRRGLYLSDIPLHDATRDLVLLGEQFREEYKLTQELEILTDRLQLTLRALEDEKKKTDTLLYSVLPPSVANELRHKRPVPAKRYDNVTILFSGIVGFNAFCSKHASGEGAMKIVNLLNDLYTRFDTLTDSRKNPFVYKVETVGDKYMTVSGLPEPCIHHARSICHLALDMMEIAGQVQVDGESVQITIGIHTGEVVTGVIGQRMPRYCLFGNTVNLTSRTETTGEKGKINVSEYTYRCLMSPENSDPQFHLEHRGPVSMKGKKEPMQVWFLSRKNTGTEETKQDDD
Experiment: CHO cellular assay (cGMP production, HTRF)
Format: cell-based
Conditions: CHO K1 clone 8E10 overexpressing human sGC, Cisbio HTRF, 1 h room temperature, 1 mM IBMX, 20 uM ODQ, minimum quantification limit 0.5 nM
Method in brief: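 Stable CHO K1 clone expressing human GUCYA3/GUCYB3. Compounds applied 1 h at room temperature in HBSS, 0.1% BSA, 1 mM IBMX, 20 uM ODQ, 0.5% DMSO. cGMP measured by HTRF and interpolated from a standard curve; EC50 from 4-parameter sigmoidal fit.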

| EC50 [nM] | Structure (SMILES) |
| --- | --- |
| 18 | CCc1csc(-c2cccc(-n3ncc(C(=O)O)c3C(F)(F)F)n2)c1COc1ccc(C2CCN(CC(F)(F)F)CC2)cc1C [Example 18-6, 1-(6-(4-Ethyl-3-((2-methyl-4-(1-(2,2,2-trifluoroethyl)piperidin-4-yl)phenoxy)methyl)thiophen-2-yl)pyridin-2-yl)-5-(trifluoromethyl)-1H-pyrazole-4-carboxylic acid] |
| 1 | Cc1cc(C2CCN(C(=O)C3CC3)CC2)ccc1NCc1c(C)csc1-c1cccc(-n2ncc(C(=O)O)c2C(F)(F)F)n1 [Example 19, 1-(6-(3-(((4-(1-(Cyclopropanecarbonyl)piperidin-4-yl)-2-methylphenyl)amino)methyl)-4-methylthiophen-2-yl)pyridin-2-yl)-5-(trifluoromethyl)-1H-pyrazole-4-carboxylic acid] |
| 12 | Cc1csc(-c2cccc(-n3ncc(C(=O)O)c3C(F)(F)F)n2)c1CNc1ccc(C2CCN(C(=O)C3CC3)CC2)cc1 [Example 20-1, 1-(6-(3-(((4-(1-(Cyclopropanecarbonyl)piperidin-4-yl)phenyl)amino)methyl)-4-methylthiophen-2-yl)pyridin-2-yl)-5-(trifluoromethyl)-1H-pyrazole-4-carboxylic acid] |
| ≤ 0.5 | CCc1c(C(=O)O)cnn1-c1cccc(-c2sc(C)c(C)c2CNc2ccc(C3CCN(C(=O)C4CC4)CC3)cc2C)n1 [Example 20-2, 1-(6-(3-(((4-(1-(Cyclopropanecarbonyl)piperidin-4-yl)-2-methylphenyl)amino)methyl)-4,5-dimethylthiophen-2-yl)pyridin-2-yl)-5-ethyl-1H-pyrazole-4-carboxylic acid] |
| 39 | Cc1cc(C2CCN(CC(F)(F)F)CC2)ccc1NCc1c(C)csc1-c1cccc(-n2ncc(C(=O)O)c2C(F)(F)F)n1 [Example 20-3, 1-(6-(4-Methy1-3-(((2-methy1-4-(1-(2,2,2-trifluoroethyl)piperidin-4-yl)phenyl)amino)methyl)thiophen-2-yl)pyridin-2-yl)-5-(trifluoromethyl)-1H-pyrazole-4-carboxylic acid] |
| ≤ 0.5 | CCC(=O)N1CCC(c2ccc(OCc3cc(C)sc3-c3cccc(-n4ncc(C(=O)O)c4C(F)(F)F)n3)c(C)c2)CC1 [Example 21, 1-(6-(5-Methyl-3-((2-methyl-4-(1-propionylpiperidin-4-yl)phenoxy)methyl)thiophen-2-yl)pyridin-2-yl)-5-(trifluoromethyl)-1H-pyrazole-4-carboxylic acid] |
| 2 | CCc1cc(COc2ccc(C3CCN(C(=O)C4CC4)CC3)cc2C)c(-c2cccc(-n3ncc(C(=O)O)c3C(F)(F)F)n2)s1 [Example 22-1, 1-(6-(3-((4-(1-(Cyclopropanecarbonyl)piperidin-4-yl)-2-methylphenoxy)methyl)-5-ethylthiophen-2-yl)pyridin-2-yl)-5-(trifluoromethyl)-1H-pyrazole-4-carboxylic acid] |
| 38 | O=C(O)c1cnn(-c2cccc(-c3sccc3COc3ccc4c(c3)CCN(Cc3ccccn3)C4)n2)c1C(F)(F)F [Example 23, 1-(6-(3-(((2-(Pyridin-2-ylmethyl)-1,2,3,4-tetrahydroisoquinolin-6-yl)oxy)methyl)thiophen-2-yl)pyridin-2-yl)-5-(trifluoromethyl)-1H-pyrazole-4-carboxylic acid] |
| 6 | CCc1cc(NCc2cc(C)sc2-c2cccc(-n3ncc(C(=O)O)c3C(F)(F)F)n2)ccc1C1CCN(C(=O)C2CC2)CC1 [Example 24, 1-(6-(3-(((4-(1-(Cyclopropanecarbonyl)piperidin-4-yl)-3-ethylphenyl)amino)methyl)-5-methylthiophen-2-yl)pyridin-2-yl)-5-(trifluoromethyl)-1H-pyrazole-4-carboxylic acid] |
| ≤ 0.5 | Cc1cc(CCc2ccc(C3CCN(C(=O)C4CC4)CC3)cc2C)c(-c2cccc(-n3ncc(C(=O)O)c3C(F)(F)F)n2)s1 [Example 25, 1-(6-(3-(4-(1-(Cyclopropanecarbonyl)piperidin-4-yl)-2-methylphenethyl)-5-methylthiophen-2-yl)pyridin-2-yl)-5-(trifluoromethyl)-1H-pyrazole-4-carboxylic acid] |
| ≤ 0.5 | Cc1cc(C2CCN(C(=O)C3CC3)CC2)ccc1CCc1ccsc1-c1cccc(-n2ncc(C(=O)O)c2C(F)(F)F)n1 [Example 26, 1-(6-(3-(4-(1-(Cyclopropanecarbonyl)piperidin-4-yl)-2-methylphenethyl)thiophen-2-yl)pyridin-2-yl)-5-(trifluoromethyl)-1H-pyrazole-4-carboxylic acid] |
| ≤ 0.5 | O=C(O)c1cnn(-c2cccc(-c3sccc3CCc3ccc(C4CCN(C(=O)C5CC5)CC4)cc3)n2)c1C(F)(F)F [Example 27, 1-(6-(3-(4-(1-(Cyclopropanecarbonyl)piperidin-4-yl)phenethyl)thiophen-2-yl)pyridin-2-yl)-5-(trifluoromethyl)-1H-pyrazole-4-carboxylic acid] |
| 4.5 | O=C(O)c1cnn(-c2cccc(-c3sccc3CNc3ccc(C4CCN(C(=O)C5CC5)CC4)cc3)n2)c1C(F)(F)F [Example 28, 1-(6-(3-(((4-(1-(Cyclopropanecarbonyl)piperidin-4-yl)phenyl)amino)methyl)thiophen-2-yl)pyridin-2-yl)-5-(trifluoromethyl)-1H-pyrazole-4-carboxylic acid] |
| 67 | Cc1cc(C2CCN(C3COC3)CC2)ccc1OCc1ccsc1-c1cccc(-n2ncc(C(=O)O)c2C(F)(F)F)n1 [Example 29, 1-(6-(3-((2-Methyl-4-(1-(oxetan-3-yl)piperidin-4-yl)phenoxy)methyl)thiophen-2-yl)pyridin-2-yl)-5-(trifluoromethyl)-1H-pyrazole-4-carboxylic acid] |
| 61 | Cc1cc(COc2ccc(C3CCN(C(=O)C4CC4)CC3)c(CO)c2)c(-c2cccc(-n3ncc(C(=O)O)c3C(F)(F)F)n2)s1 [Example 30, 1-(6-(3-((4-(1-(Cyclopropanecarbonyl)piperidin-4-yl)-3-(hydroxymethyl)phenoxy)methyl)-5-methylthiophen-2-yl)pyridin-2-yl)-5-(trifluoromethyl)-1H-pyrazole-4-carboxylic acid] |
| 13 | CCC(=O)N1CCC(c2ccc(COc3ccsc3-c3cccc(-n4ncc(C(=O)O)c4C(F)(F)F)n3)cc2)CC1 [Example 31, 1-(6-(3-((4-(1-Propionylpiperidin-4-yl)benzyl)oxy)thiophen-2-yl)pyridin-2-yl)-5-(trifluoromethyl)-1H-pyrazole-4-carboxylic acid] |
| ≤ 0.5 | Cc1cc(COc2ccc(C3CCN(C(=O)C4CC4)CC3)cc2C(F)(F)F)c(-c2cccc(-n3ncc(C(=O)O)c3C(F)(F)F)n2)s1 [Example 32, 1-(6-(3-((4-(1-(Cyclopropanecarbonyl)piperidin-4-yl)-2-(trifluoromethyl)phenoxy)methyl)-5-methylthiophen-2-yl)pyridin-2-yl)-5-(trifluoromethyl)-1H-pyrazole-4-carboxylic acid] |
| 23 | O=C(O)c1cnn(-c2cccc(-c3sccc3COc3ccc(C4CCN(C(=O)C5CC5)CC4)cc3C(F)(F)F)n2)c1C(F)(F)F [Example 33-1, 1-(6-(3-((4-(1-(Cyclopropanecarbonyl)piperidin-4-yl)-2-(trifluoromethyl)phenoxy)methyl)thiophen-2-yl)pyridin-2-yl)-5-(trifluoromethyl)-1H-pyrazole-4-carboxylic acid] |
